Measurements: patent publication US9561278B2, “Derivatized hyperbranched polyglycerols” (THE UNIVERSITY OF BRITISH COLUMBIA, priority 2010, dated 2017)
Converted amounts (≈) assume the structure as drawn.

Key:
[1] = In vitro cisplatin release by dialysis; format: physicochemical; conditions: PBS, 37° C.
Protocol: Cisplatin was bound to the carboxylate modified HPGs as described above with final polymer and cisplatin concentrations of 10 and 1 mg/mL, respectively. Into 7000 MWCO Slide-A-Lyzer mini dialysis units (Thermo Scientific, Rockford, Ill.), 20 μL of cisplatin bound polymer solution, or a 1 mg/mL solution of free cisplatin, were added and the samples were dialyzed at 37° C. with stirring against 4 L of 1 mM PBS adjusted to pHs of 4.5, 6.0, and 7.4 or synthetic urine at pH 7.0. Synthetic urine (Surine) was purchased from Dyna-Tek Industries (Lenexa, Kans.). At predetermined time points, three dialysis units were removed from the release media, and the entire contents were removed with three washings of the dialysis unit followed by dilution to 1 mL with fresh release media. The cisplatin concentration of contents of the dialysis units was determined by OPDA colorimetric assay. The cumulative percent drug released was calculated by subtracting the amount of drug remaining from the initial amount of drug in the dialysis bag at the beginning of the experiment. The data were expressed as cumulative percentage of drug released as a function of time.

[2] = system: KU-7-luc bladder cancer cells; experiment: Cytotoxicity evaluation, MTS cell proliferation assay; format: cell-based; conditions: cisplatin concentration
Protocol: Cytotoxicity studies were performed using the MTS cell proliferation assay (Promega, Madison, Wis.). […] In this study, KU-7-luc bladder cancer cells, kindly provided by Dr. M. Tachibana (Keio University, Tokyo, Japan). The cells were plated at 5000 cells/well into 96-well plates in 180 μL of Dulbecco's modified Eagle (DMEM) medium (Invitrogen Canada, Inc., Burlington, ON) supplemented with 10% fetal bovine serum (FBS) (Invitrogen Canada, Inc., Burlington, ON), 1% penicillin-streptomycin, and 1% L-glutamine and allowed to grow for 24 h at 37° C. in 5% CO2 to reach approximately 80% confluence for cytotoxicity assays. Cells were then incubated for 2 or 72 h with HPGs alone, ranging from 0.01-100 mg/mL, or free cisplatin or cisplatin-loaded HPGs with drug concentrations ranging from 0.01-100 μg/mL. After treatment, the cells were washed twice with Hank's balanced salt solution (HBSS) and 180 μL of fresh culture media was added into each well and cells were allowed to grow for 72 h. Proliferation of these cells was measured using a CellTiter 96 aqueous non-radioactive cell proliferation assay (Promega, Madison, Wis.) as described previously (Mugabe, C.; Hadaschik, B. A.; Kainthan, R. K.; Brooks, D. E.; So, A. I.; Gleave, M. E.; Burt, H. M. BJU Int. 2009, 103, 978-986). […] The absorbance was measured at 490 nm with a reference of 620 nm using a microplate reader.

[3] = cited from earlier work

Structure (SMILES)	time to 100% complete release [1]	IC50 ([2]; 2 h incubation)	IC50 ([2]; 72 h incubation)	aqueous solubility [3]
N.N.[Cl][Pt][Cl] [free cisplatin, cisplatin]	≤ 7 h	approximately 10 μg/mL	1 µg/mL	
CC(=O)O[C@@]12CO[C@@H]1C[C@H](O)[C@@]1(C)C(=O)[C@H](O)C3=C(C)[C@@H](OC(=O)[C@H](O)[C@@H](NC(=O)OC(C)(C)C)c4ccccc4)C[C@@](O)([C@@H](OC(=O)c4ccccc4)[C@H]21)C3(C)C [DTX, docetaxel]				~7 µg/mL (≈ 8.66 µM)
